Data reported in patent publication US7820623B2 (priority 2006, dated 2010).
pIC50: −log10 of the molar value. Where two headings read alike, the source gives them in different places. Bridge positions count the residues as written; N and C are the ends. Square brackets hold non-standard residues; d marks the D form. Peptide text beside a SMILES is read from it. 1Nal = N[C@@H](Cc1cccc2ccccc12)C(=O)O

Legend:
[1] = system: thapsigargin-induced IFN-g production in human whole blood; type: cell-based
[2] = system: thapsigargin-induced IL-2 production in human whole blood
[3] = read-out: Analogue Activity (IC50) WB/IFNg
[4] = read-out: Analogue Activity (IC50) WB/IL-2

With “GVIINVKCKISRQCLEACKKAGMRFGKCMNGKCHCTPK [Ala-17 (SEQ ID No: 1414)]” the pIC50 ([1]; read-out: Average IC50 IFNg) was 9.76 and the pIC50 ([2]; read-out: Average IC50 IL-2) was 9.76.

Work on `CC[C@H](C)[C@@H]1NC(=O)[C@H](CCC(=O)O)NC(=O)[C@@H](NC(=O)[C@H](CCCCN)NC(=O)[C@@H](NC(=O)[C@H](CC(N)=O)NC(=O)[C@@H](NC(=O)[C@@H](NC(=O)[C@@H](NC(=O)CN)C(C)C)[C@@H](C)CC)[C@@H](C)CC)C(C)C)CSSC[C@@H]2NC(=O)[C@H](CCCCN)NC(=O)CNC(=O)[C@H](Cc3ccccc3)NC(=O)[C@H](CCCNC(=N)N)NC(=O)[C@H](CCSC)NC(=O)CNC(=O)[C@H](C)NC(=O)[C@H](CCCCN)NC(=O)[C@H](CCCCN)NC(=O)[C@@H]3CSSC[C@@H](C(=O)N[C@H](C(=O)N4CCC[C@H]4C(=O)N[C@@H](CCCCN)C(=O)O)[C@@H](C)O)NC(=O)[C@H](Cc4c[nH]cn4)NC(=O)[C@H](CSSC[C@H](NC(=O)[C@H](CCC(N)=O)NC(=O)[C@H](CCCNC(=N)N)NC(=O)[C@H](CO)NC1=O)C(=O)N[C@@H](CC(C)C)C(=O)N[C@@H](CCC(=O)O)C(=O)N1CCC[C@H]1C(=O)N3)NC(=O)[C@H](CCCCN)NC(=O)CNC(=O)[C@H](CC(N)=O)NC(=O)[C@H](CCSC)NC2=O` [K9E] (H-GVIINVKCEISRQCLEPCKKAGMRFGKCMNGKCHCTPK-OH; disulfide 8-28, 14-33, 18-35) yielded a pIC50 [1, 3] of 9.77 and a pIC50 [2, 4] of 9.75.

With `CC[C@H](C)[C@@H]1NC(=O)[C@H](CCCCN)NC(=O)[C@@H](NC(=O)[C@H](CCCCN)NC(=O)[C@@H](NC(=O)[C@H](CC(N)=O)NC(=O)[C@@H](NC(=O)[C@@H](NC(=O)[C@@H](NC(=O)CN)C(C)C)[C@@H](C)CC)[C@@H](C)CC)C(C)C)CSSC[C@@H]2NC(=O)[C@H](CCCCN)NC(=O)CNC(=O)[C@H](Cc3cccc4ccccc34)NC(=O)[C@H](CCCNC(=N)N)NC(=O)[C@H](CCSC)NC(=O)CNC(=O)[C@H](C)NC(=O)[C@H](CCCCN)NC(=O)[C@H](CCCCN)NC(=O)[C@@H]3CSSC[C@@H](C(=O)N[C@H](C(=O)N4CCC[C@H]4C(=O)N[C@@H](CCCCN)C(=O)O)[C@@H](C)O)NC(=O)[C@H](Cc4c[nH]cn4)NC(=O)[C@H](CSSC[C@H](NC(=O)[C@H](CCC(N)=O)NC(=O)[C@H](CCCNC(=N)N)NC(=O)[C@H](CO)NC1=O)C(=O)N[C@@H](CC(C)C)C(=O)N[C@@H](CCC(=O)O)C(=O)N1CCC[C@H]1C(=O)N3)NC(=O)[C@H](CCCCN)NC(=O)CNC(=O)[C@H](CC(N)=O)NC(=O)[C@H](CCSC)NC2=O` [F25Nal] (H-GVIINVKCKISRQCLEPCKKAGMR[1Nal]GKCMNGKCHCTPK-OH; disulfide 8-28, 14-33, 18-35) the pIC50 [1, 3] was 8.77 and the pIC50 [2, 4] was 8.76.

With `CC[C@H](C)[C@@H]1NC(=O)[C@H](CCCCN)NC(=O)[C@@H](NC(=O)[C@H](CCCCN)NC(=O)[C@@H](NC(=O)[C@H](CC(N)=O)NC(=O)[C@@H](NC(=O)[C@@H](NC(=O)[C@@H](NC(=O)CN)C(C)C)[C@@H](C)CC)[C@@H](C)CC)C(C)C)CSSC[C@@H]2NC(=O)[C@H](CCCCN)NC(=O)CNC(=O)[C@H](Cc3ccccc3)NC(=O)[C@H](CCCNC(=N)N)NC(=O)[C@H](CCSC)NC(=O)CNC(=O)[C@H](C)NC(=O)[C@H](CCCCN)NC(=O)[C@H](Cc3cccc4ccccc34)NC(=O)[C@@H]3CSSC[C@@H](C(=O)N[C@H](C(=O)N4CCC[C@H]4C(=O)N[C@@H](CCCCN)C(=O)O)[C@@H](C)O)NC(=O)[C@H](Cc4c[nH]cn4)NC(=O)[C@H](CSSC[C@H](NC(=O)[C@H](CCC(N)=O)NC(=O)[C@H](CCCNC(=N)N)NC(=O)[C@H](CO)NC1=O)C(=O)N[C@@H](CC(C)C)C(=O)N[C@@H](CCC(=O)O)C(=O)N1CCC[C@H]1C(=O)N3)NC(=O)[C@H](CCCCN)NC(=O)CNC(=O)[C@H](CC(N)=O)NC(=O)[C@H](CCSC)NC2=O` [K19Nal] (H-GVIINVKCKISRQCLEPC[1Nal]KAGMRFGKCMNGKCHCTPK-OH; disulfide 8-28, 14-33, 18-35) the pIC50 [1, 3] was 10.00 and the pIC50 [2, 4] was 10.24.

For `CC[C@H](C)[C@@H]1NC(=O)[C@H](CCCCN)NC(=O)[C@@H](NC(=O)[C@H](CCCCN)NC(=O)[C@@H](NC(=O)[C@H](CC(N)=O)NC(=O)[C@@H](NC(=O)[C@@H](NC(=O)[C@H](CCCNC(=N)N)NC(=O)CN)[C@@H](C)CC)[C@@H](C)CC)C(C)C)CSSC[C@@H]2NC(=O)[C@H](CCCCN)NC(=O)CNC(=O)[C@H](Cc3ccccc3)NC(=O)[C@H](CCCNC(=N)N)NC(=O)[C@H](CCSC)NC(=O)CNC(=O)[C@H](C)NC(=O)[C@H](CCCCN)NC(=O)[C@H](CCCCN)NC(=O)[C@@H]3CSSC[C@@H](C(=O)N[C@H](C(=O)N4CCC[C@H]4C(=O)N[C@@H](CCCCN)C(=O)O)[C@@H](C)O)NC(=O)[C@H](Cc4c[nH]cn4)NC(=O)[C@H](CSSC[C@H](NC(=O)[C@H](CCC(N)=O)NC(=O)[C@H](CCCNC(=N)N)NC(=O)[C@H](CO)NC1=O)C(=O)N[C@@H](CC(C)C)C(=O)N[C@@H](CCC(=O)O)C(=O)N1CCC[C@H]1C(=O)N3)NC(=O)[C@H](CCCCN)NC(=O)CNC(=O)[C@H](CC(N)=O)NC(=O)[C@H](CCSC)NC2=O` [V2R] (H-GRIINVKCKISRQCLEPCKKAGMRFGKCMNGKCHCTPK-OH; disulfide 8-28, 14-33, 18-35), the pIC50 [1, 3] was 9.01 and the pIC50 [2, 4] was 9.11.

`CC[C@H](C)[C@@H]1NC(=O)[C@H](CCCCN)NC(=O)[C@@H](NC(=O)[C@H](CCCCN)NC(=O)[C@@H](NC(=O)[C@H](CC(N)=O)NC(=O)[C@@H](NC(=O)[C@@H](NC(=O)[C@@H](NC(=O)CN)C(C)C)[C@@H](C)CC)[C@@H](C)CC)C(C)C)CSSC[C@@H]2NC(=O)[C@H](CCCCN)NC(=O)CNC(=O)[C@H](Cc3ccccc3)NC(=O)[C@H](CCCNC(=N)N)NC(=O)[C@H](CCSC)NC(=O)CNC(=O)[C@H](C)NC(=O)[C@H](CCCCN)NC(=O)[C@H](C)NC(=O)[C@@H]3CSSC[C@@H](C(=O)N[C@H](C(=O)N4CCC[C@H]4C(=O)N[C@@H](CCCCN)C(=O)O)[C@@H](C)O)NC(=O)[C@H](Cc4c[nH]cn4)NC(=O)[C@H](CSSC[C@H](NC(=O)[C@H](CCC(N)=O)NC(=O)[C@H](CCCNC(=N)N)NC(=O)[C@H](CO)NC1=O)C(=O)N[C@@H](CC(C)C)C(=O)N[C@@H](CCC(=O)O)C(=O)N1CCC[C@H]1C(=O)N3)NC(=O)[C@H](CCCCN)NC(=O)CNC(=O)[C@H](CC(N)=O)NC(=O)[C@H](CCSC)NC2=O` [K19A] (H-GVIINVKCKISRQCLEPCAKAGMRFGKCMNGKCHCTPK-OH; disulfide 8-28, 14-33, 18-35) gave a pIC50 [1, 3] of 9.79 and a pIC50 [2, 4] of 9.79.

Molecule `CC[C@H](C)[C@@H]1NC(=O)[C@H](CCCNC(=N)N)NC(=O)[C@@H](NC(=O)[C@H](CCCCN)NC(=O)[C@@H](NC(=O)[C@H](CC(N)=O)NC(=O)[C@@H](NC(=O)[C@@H](NC(=O)[C@@H](NC(=O)CN)C(C)C)[C@@H](C)CC)[C@@H](C)CC)C(C)C)CSSC[C@@H]2NC(=O)[C@H](CCCCN)NC(=O)CNC(=O)[C@H](Cc3ccccc3)NC(=O)[C@H](CCCNC(=N)N)NC(=O)[C@H](CCSC)NC(=O)CNC(=O)[C@H](C)NC(=O)[C@H](CCCCN)NC(=O)[C@H](CCCCN)NC(=O)[C@@H]3CSSC[C@@H](C(=O)N[C@H](C(=O)N4CCC[C@H]4C(=O)N[C@@H](CCCCN)C(=O)O)[C@@H](C)O)NC(=O)[C@H](Cc4c[nH]cn4)NC(=O)[C@H](CSSC[C@H](NC(=O)[C@H](CCC(N)=O)NC(=O)[C@H](CCCNC(=N)N)NC(=O)[C@H](CO)NC1=O)C(=O)N[C@@H](CC(C)C)C(=O)N[C@@H](CCC(=O)O)C(=O)N1CCC[C@H]1C(=O)N3)NC(=O)[C@H](CCCCN)NC(=O)CNC(=O)[C@H](CC(N)=O)NC(=O)[C@H](CCSC)NC2=O` [K9R] (H-GVIINVKCRISRQCLEPCKKAGMRFGKCMNGKCHCTPK-OH; disulfide 8-28, 14-33, 18-35) has a pIC50 [1, 3] of 10.11 and a pIC50 [2, 4] of 9.97.

Molecule “GAIINVKCKISRQCLEPCKKAGMRFGKCMNGKCHCTPK [Ala-2 (SEQ ID No: 1401)]” has a pIC50 ([1]; read-out: Average IC50 IFNg) of 9.99 and a pIC50 ([2]; read-out: Average IC50 IL-2) of 10.05.

`CC[C@H](C)[C@@H]1NC(=O)[C@H](CCCCN)NC(=O)[C@@H](NC(=O)[C@H](CCCCN)NC(=O)[C@@H](NC(=O)[C@H](CC(N)=O)NC(=O)[C@@H](NC(=O)[C@@H](NC(=O)[C@@H](NC(=O)CN)C(C)C)[C@@H](C)CC)[C@@H](C)CC)C(C)C)CSSC[C@@H]2NC(=O)[C@H](CCCCN)NC(=O)CNC(=O)[C@H](Cc3ccccc3)NC(=O)[C@H](CCCNC(=N)N)NC(=O)[C@H](CCSC)NC(=O)CNC(=O)[C@H](C)NC(=O)[C@H](CCCCN)NC(=O)[C@H](CCCCN)NC(=O)[C@@H]3CSSC[C@@H](C(=O)N[C@H](C(=O)N4CCC[C@H]4C(=O)N[C@@H](CCCCN)C(=O)O)[C@@H](C)O)NC(=O)[C@H](Cc4c[nH]cn4)NC(=O)[C@H](CSSC[C@H](NC(=O)[C@H](CCC(N)=O)NC(=O)[C@H](CCCNC(=N)N)NC(=O)[C@H](CO)NC1=O)C(=O)N[C@@H](CC(C)C)C(=O)N[C@@H](C)C(=O)N1CCC[C@H]1C(=O)N3)NC(=O)[C@H](CCCCN)NC(=O)CNC(=O)[C@H](CC(N)=O)NC(=O)[C@H](CCSC)NC2=O` [E16A] (H-GVIINVKCKISRQCLAPCKKAGMRFGKCMNGKCHCTPK-OH; disulfide 8-28, 14-33, 18-35) showed a pIC50 [1, 3] of 10.00 and a pIC50 [2, 4] of 10.00.

For `CC[C@H](C)[C@@H]1NC(=O)[C@H](CCCCN)NC(=O)[C@@H](NC(=O)[C@H](CCCCN)NC(=O)[C@@H](NC(=O)[C@H](CC(N)=O)NC(=O)[C@@H](NC(=O)[C@@H](NC(=O)[C@@H](NC(=O)[C@H](C)N)C(C)C)[C@@H](C)CC)[C@@H](C)CC)C(C)C)CSSC[C@@H]2NC(=O)[C@H](CCCCN)NC(=O)CNC(=O)[C@H](Cc3ccccc3)NC(=O)[C@H](CCCNC(=N)N)NC(=O)[C@H](CCSC)NC(=O)CNC(=O)[C@H](C)NC(=O)[C@H](CCCCN)NC(=O)[C@H](CCCCN)NC(=O)[C@@H]3CSSC[C@@H](C(=O)N[C@H](C(=O)N4CCC[C@H]4C(=O)N[C@@H](CCCCN)C(=O)O)[C@@H](C)O)NC(=O)[C@H](Cc4c[nH]cn4)NC(=O)[C@H](CSSC[C@H](NC(=O)[C@H](CCC(N)=O)NC(=O)[C@H](CCCNC(=N)N)NC(=O)[C@H](CO)NC1=O)C(=O)N[C@@H](CC(C)C)C(=O)N[C@@H](CCC(=O)O)C(=O)N1CCC[C@H]1C(=O)N3)NC(=O)[C@H](CCCCN)NC(=O)CNC(=O)[C@H](CC(N)=O)NC(=O)[C@H](CCSC)NC2=O` [G1A] (H-AVIINVKCKISRQCLEPCKKAGMRFGKCMNGKCHCTPK-OH; disulfide 8-28, 14-33, 18-35), the pIC50 [1, 3] was 9.92 and the pIC50 [2, 4] was 9.91.
